In PMC5884652, “New antimicrobial peptide kills drug-resistant pathogens without detectable resistance” (Oncotarget, 2018):
Ends that are not written are not given here.

Key:
[1] = type: in vivo; conditions: 30 min; topical, 200 μg/mL, hairless mouse skin, fluorescence microscopy
Protocol: Topical delivery of rhodamine-labeled CSP-4 was evaluated on hairless mouse skin. Male hairless mice (6 weeks old) bred by Hoshino Laboratory Animals, Inc. (Bandou-shi, Japan) were purchased from Japan SLC, Inc. (Hamamatsu, Japan). After anesthetizing 5 mice per group (3 groups) with isoflurane, rhodamine-labeled CSP-4 (200 μg/mL) was spread on the hairless mouse skin. The skin was then examined for reactions every 5 min for 30 min. Skin tissue was collected and washed once in PBS, fixed in 4% paraformaldehyde for 12 h, dehydrated in 50% and 100% ethanol (2 h each), and washed 3 times in xylene substitute (1 h/wash). Paraffin-embedded samples were cut into 4 μm-thick sections (Microtome; Thermo Scientific, Waltham, MA, USA) and examined under a fluorescence microscope (IX71; Olympus; Tokyo, Japan).
Supplementary Figure 2: Topical application of rhodamine-labeled CSP-4 to the skin of hairless mouse. Mice were anesthetized with isoflurane and immobilized. Rhodamine-labeled CSP-4 (200 μg/ml) was then applied to the skin in a topical spread.
Diffusion of the peptide into the skin was assessed after 5, 10, 15, 20, 25 and 30 min.
Supplementary Figure 3: Observation of GUVs (PE/PG) with peptides. […] Morphological changes and calcein leakage from the GUVs was monitored. GUVs were examined under an inverted fluorescence phase contrast microscope, and images were recoded using a digital CCD camera. […]

[2] = test system: TNF-α and IL-1β in RAW 264.7 macrophages; experiment: Pro-inflammatory cytokines in macrophages; type: cell-based, mouse
Protocol: To examine cytokine expression elicited by S. aureus CCARM 0027, RAW 264.7 mouse macrophages were cultured in DMEM supplemented with antibiotics ([…] penicillin and 100 μg/mL streptomycin) and 10% fetal calf serum in 12-well plates at 37° C in a humidified chamber with an atmosphere containing 5% CO2. Expression of the pro-inflammatory cytokines TNFα and IL-β was evaluated after the addition of S. aureus CCARM 0027 (1 × 10^6 cfu/mL) for 30 min at […]. After treatment, the RAW 264.7 cells (1 × 10^6 cells/mL) were incubated for an additional 24 h with or without CSP-4 (25, 50, 100, and 200 µg/mL). The cells were then collected and the protein was extracted using PRO-PREP™ protein extraction solution (iNtRON Biotechnology, Gyeonggi-do, Korea).
RAW 264.7 cells (1 × 10^6 cells/mL) were seeded into a 12-well plate and incubated for 24 h as described above. […] The levels of pro-inflammatory cytokines in the supernatants were determined after 12 h using mouse anti-TNF-α and anti-IL-1β antibodies based on absorbance at 450 nm using a microplate reader (VERSA Max microplate reader, Molecular Devices). Cytokine concentrations were also determined using TNF-α and IL-1β enzyme-linked immunosorbent assay kits (Koma Biotech, Seoul, Korea). […]

[3] = test system: HaCaT cells; type: cell-based, human; conditions: 400 μM rhodamine-labeled peptide, 24 h, 37° C, fluorescence microscope
Protocol: (§1) www.oncotarget.com Oncotarget, Supplementary Materials
(§2) New antimicrobial peptide kills drug-resistant pathogens without […]
(§3) Supplementary Figure 1: The hemolytic activities of peptides were tested using hRBCs, and cytotoxicity was tested using a human keratinocyte line (HaCaT cells). The cells were treated with 400 μM peptide in PBS buffer containing 8% hRBCs (v/v). The samples were then incubated with mild agitation for 1 h at 37° C, and then spun down at 800 × g for 10 min. Changes in hRBC morphology were examined under a microscope. Cells were treated with 400 μM rhodamine-labeled peptides. HaCaT cells were seeded at 4 × 10^3 cells/well and then incubated for 24 h, treated with rhodamine-labeled peptide and incubated for an additional 24 h at 37° C in a humidified chamber under an atmosphere containing 5% CO2. The cells were examined under an inverted fluorescence phase contrast microscope. Scale bar, 100 μm.
(§4) (1 picture or pasted object on this page, not shown here)

[4] = test system: hRBCs; type: cell-based, human; conditions: 400 μM peptide, PBS buffer containing 8% hRBCs, 1 h, 37° C, microscope
Protocol: as §1, §2, §3, §4

For FLRFIGSVKHGKGHLVHHIGVAL-NH2 [CSP-4], the “Depth of penetration into skin” value [1] was 25–40 μm, the “TNF-α and IL-1β levels” value ([2]; RAW 264.7 cells exposed to S. aureus CCARM 0027 (1 × 10^6 cfu/mL), CSP-4 25, 50, 100, and 200 μg/mL, ELISA) was “significantly decreased” and the “TNF-α and IL-1β levels” value ([2]; RAW 264.7 cells treated with 1 μg/mL S. aureus LTA, CSP-4 100 µg/mL, immunocytochemistry) was “reduced TNF-α and IL-1β levels”. The “Binding to the cell membrane of HaCaT cells” value [3] was “no detectable hemolytic or membrane-binding activity” and the “Membrane damage of hRBCs” value [4] was “no detectable hemolytic or membrane-binding activity”.
